Reference: ChEMBL document CHEMBL4152377, “Design and Activity of Specific Hypoxia-Inducible Factor-2α (HIF-2α) Inhibitors for the Treatment of Clear Cell Renal Cell Carcinoma: Discovery of Clinical Candidate ( S)-3-((2,2-Difluoro-1-hydroxy-7-(methylsulfonyl)-2,3-dihydro-1 H-inden-4-yl)oxy)-5-fluorobenzonitrile (PT2385)” (J Med Chem, 2018)
pIC50: −log10 of the molar value. The source made the active and inactive calls. The calls are words filed in the database; no cut-off is given here.

Tests used:
Cytochrome P450 1A2 = biological target: T1, Cytochrome P450 1A2 (Homo sapiens, UniProt P05177); assay: Inhibition of CYP1A2 in human liver microsomes using phenacetin after 10 mins in presence of NADPH by LC-MS/MS analysis; type: ADME
T1 sequence (P05177 whole entry): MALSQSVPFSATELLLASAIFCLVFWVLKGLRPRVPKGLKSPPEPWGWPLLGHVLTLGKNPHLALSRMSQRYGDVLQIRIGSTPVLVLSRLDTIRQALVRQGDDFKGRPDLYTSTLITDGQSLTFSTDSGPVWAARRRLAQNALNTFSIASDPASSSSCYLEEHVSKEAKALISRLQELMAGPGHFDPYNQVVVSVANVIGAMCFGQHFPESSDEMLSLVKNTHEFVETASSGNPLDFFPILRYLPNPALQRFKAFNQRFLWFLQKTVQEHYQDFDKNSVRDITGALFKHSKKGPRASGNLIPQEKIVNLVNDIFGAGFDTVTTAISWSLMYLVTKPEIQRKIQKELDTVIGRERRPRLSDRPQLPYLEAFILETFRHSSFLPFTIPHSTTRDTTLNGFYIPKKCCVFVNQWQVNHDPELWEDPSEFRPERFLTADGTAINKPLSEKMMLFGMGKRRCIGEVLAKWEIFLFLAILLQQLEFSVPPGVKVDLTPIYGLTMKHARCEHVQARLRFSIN

Mus musculus [1] = assay: In vivo inhibition of HIF-2alpha in SCID/Biege mouse xenografted with human 786-O cells assessed as reduction in CCND1 mRNA levels at 10 mg/kg, po bid for 3 days and measured after 12 hrs post last dose by qRT-PCR analysis; type: functional, organism-based
[2] = Intrinsic clearance in human liver microsomes at 1 uM measured up to 30 mins by LC-MS/MS analysis; type: ADME, microsome; details: read-out: CLH
[3] = Volume of distribution at steady state in Sprague-Dawley rat at 3 mg/kg, iv by UPLC analysis; type: ADME, organism-based; details: in vivo, read-out: Vdss
[4] = Intrinsic clearance in mouse liver microsomes at 1 uM measured up to 30 mins by LC-MS/MS analysis; type: ADME, microsome; details: read-out: CLH
Mus musculus [5] = assay: Toxicity in SCID/Biege mouse xenografted with human 786-O cells assessed as morbidity at 10 mg/kg, po bid for 21 days; type: organism-based; details: in vivo, 504 h
[6] = Clearance in Sprague-Dawley rat at 3 mg/kg, iv by UPLC analysis; type: ADME, organism-based; details: in vivo
[7] = Protein binding in dog plasma at 10 uM after 4 hrs by LC-MS/MS analysis; type: ADME, cell-free, Canis lupus familiaris; details: read-out: PPB (converted)
[8] = Protein binding in mouse plasma at 10 uM after 4 hrs by LC-MS/MS analysis; type: ADME, cell-free; details: read-out: PPB (converted)
[9] = AUCt in CD1 mouse at 10 mg/kg, po by UPLC analysis; type: ADME, organism-based; details: in vivo
[10] = Volume of distribution at steady state in CD1 mouse at 3 mg/kg, iv by UPLC analysis; type: ADME, organism-based; details: in vivo, read-out: Vdss
hERG (KCNH2) = hERG (KCNH2) (Homo sapiens, UniProt Q12809); assay: Inhibition of human ERG expressed in mammalian cells at 10 uM after 3 mins by QPatch clamp assay; type: cell-based; details: mammalian cells that express human ERG
Chain of hERG (KCNH2) (Q12809 whole entry): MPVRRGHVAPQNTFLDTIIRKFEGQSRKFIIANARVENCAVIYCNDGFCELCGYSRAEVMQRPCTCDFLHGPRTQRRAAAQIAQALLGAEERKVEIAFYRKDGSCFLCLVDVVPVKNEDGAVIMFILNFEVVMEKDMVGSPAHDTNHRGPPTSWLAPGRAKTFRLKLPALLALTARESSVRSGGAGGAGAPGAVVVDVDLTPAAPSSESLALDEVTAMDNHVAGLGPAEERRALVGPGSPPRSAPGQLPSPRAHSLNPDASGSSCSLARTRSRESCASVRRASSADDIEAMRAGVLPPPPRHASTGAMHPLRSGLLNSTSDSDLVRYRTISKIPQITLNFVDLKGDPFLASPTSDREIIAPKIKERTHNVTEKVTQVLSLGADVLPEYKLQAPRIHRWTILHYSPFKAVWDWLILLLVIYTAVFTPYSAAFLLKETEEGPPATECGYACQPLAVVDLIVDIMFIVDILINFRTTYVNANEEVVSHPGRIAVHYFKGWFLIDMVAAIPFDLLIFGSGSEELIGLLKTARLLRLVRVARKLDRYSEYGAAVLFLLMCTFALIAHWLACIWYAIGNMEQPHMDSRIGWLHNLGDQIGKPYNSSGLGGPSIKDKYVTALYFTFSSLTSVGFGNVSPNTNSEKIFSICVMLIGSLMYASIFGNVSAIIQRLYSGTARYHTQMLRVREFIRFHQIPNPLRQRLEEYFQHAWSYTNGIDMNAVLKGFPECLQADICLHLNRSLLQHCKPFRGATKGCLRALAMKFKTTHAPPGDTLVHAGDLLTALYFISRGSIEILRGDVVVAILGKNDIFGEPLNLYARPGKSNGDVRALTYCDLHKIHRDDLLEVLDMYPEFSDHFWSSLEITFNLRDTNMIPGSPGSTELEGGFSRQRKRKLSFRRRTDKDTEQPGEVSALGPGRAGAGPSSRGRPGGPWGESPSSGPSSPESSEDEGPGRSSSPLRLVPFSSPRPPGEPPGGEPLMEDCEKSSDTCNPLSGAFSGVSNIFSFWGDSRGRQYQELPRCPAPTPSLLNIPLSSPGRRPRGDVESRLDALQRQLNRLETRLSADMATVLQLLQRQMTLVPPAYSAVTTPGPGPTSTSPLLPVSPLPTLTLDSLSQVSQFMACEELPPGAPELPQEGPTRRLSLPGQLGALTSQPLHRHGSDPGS

[11] = Half life in CD1 mouse at 10 mg/kg, po by UPLC analysis; type: ADME, organism-based; details: in vivo
786-0 [12] = assay: In vivo inhibition of HIF-2alpha in SCID/Biege mouse xenografted with human 786-O cells assessed as reduction in tumor derived VEGFA protein levels at 10 mg/kg, po bid for 3 days and measured after 12 hrs post last dose by ELISA; type: functional, organism-based
Canis familiaris [13] = assay: AUCt in Beagle dog at 10 mg/kg, po via gavage by UPLC analysis; type: ADME, organism-based, Canis lupus familiaris; details: in vivo
Mus musculus [14] = assay: Minimum drug level in SCID/Biege mouse xenografted with human 786-O cells at 10 mg/kg, po bid for 3 days and measured after 12 hrs post last dose by LC-MS/MS analysis; type: ADME, organism-based; details: in vivo
[15] = Half life in Beagle dog at 10 mg/kg, po via gavage by UPLC analysis; type: ADME, organism-based, Canis lupus familiaris; details: in vivo
[16] = Clearance in CD1 mouse at 3 mg/kg, iv by UPLC analysis; type: ADME, organism-based; details: in vivo
Cytochrome P450 2D6 = Cytochrome P450 2D6 (Homo sapiens, UniProt P10635); assay: Inhibition of CYP2D6 in human liver microsomes using dextromethorphan as substrate after 10 mins in presence of NADPH by LC-MS/MS analysis; type: ADME
Chain of Cytochrome P450 2D6 (P10635 whole entry): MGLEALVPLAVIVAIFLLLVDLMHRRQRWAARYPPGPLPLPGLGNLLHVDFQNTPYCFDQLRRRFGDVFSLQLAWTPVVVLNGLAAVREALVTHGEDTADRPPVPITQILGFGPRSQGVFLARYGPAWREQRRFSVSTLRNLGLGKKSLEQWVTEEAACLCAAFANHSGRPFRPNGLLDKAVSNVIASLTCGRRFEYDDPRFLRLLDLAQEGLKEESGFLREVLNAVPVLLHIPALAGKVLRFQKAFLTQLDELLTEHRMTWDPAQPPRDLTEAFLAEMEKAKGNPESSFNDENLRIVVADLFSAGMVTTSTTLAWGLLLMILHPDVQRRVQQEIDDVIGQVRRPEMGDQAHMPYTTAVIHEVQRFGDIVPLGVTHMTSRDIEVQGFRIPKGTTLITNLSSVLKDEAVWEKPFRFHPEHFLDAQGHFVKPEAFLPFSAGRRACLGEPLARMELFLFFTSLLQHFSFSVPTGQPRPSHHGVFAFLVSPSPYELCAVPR

[17] = Plasma concentration in mouse after 12 hrs; type: ADME, cell-free
[18] = Oral bioavailability in CD1 mouse at 10 mg/kg by UPLC analysis; type: ADME, organism-based; details: in vivo
[19] = Protein binding in rat plasma at 10 uM after 4 hrs by LC-MS/MS analysis; type: ADME, cell-free; details: read-out: PPB (converted)
[20] = Oral bioavailability in Sprague-Dawley rat at 10 mg/kg administered via gavage by UPLC analysis; type: ADME, organism-based; details: in vivo
[21] = Intrinsic clearance in dog liver microsomes at 1 uM measured up to 30 mins by LC-MS/MS analysis; type: ADME, Canis lupus familiaris, microsome; details: read-out: CLH
786-0 [22] = assay: Antitumor activity against human 786-O cells xenografted in SCID/Biege mouse assessed as tumor regression at 10 mg/kg, po bid for 21 days; type: functional, organism-based
Cytochrome P450 2C9 = Cytochrome P450 2C9 (Homo sapiens, UniProt P11712); assay: Inhibition of CYP2C9 in human liver microsomes using diclofenac as substrate after 10 mins in presence of NADPH by LC-MS/MS analysis; type: ADME
Chain of Cytochrome P450 2C9 (P11712 whole entry): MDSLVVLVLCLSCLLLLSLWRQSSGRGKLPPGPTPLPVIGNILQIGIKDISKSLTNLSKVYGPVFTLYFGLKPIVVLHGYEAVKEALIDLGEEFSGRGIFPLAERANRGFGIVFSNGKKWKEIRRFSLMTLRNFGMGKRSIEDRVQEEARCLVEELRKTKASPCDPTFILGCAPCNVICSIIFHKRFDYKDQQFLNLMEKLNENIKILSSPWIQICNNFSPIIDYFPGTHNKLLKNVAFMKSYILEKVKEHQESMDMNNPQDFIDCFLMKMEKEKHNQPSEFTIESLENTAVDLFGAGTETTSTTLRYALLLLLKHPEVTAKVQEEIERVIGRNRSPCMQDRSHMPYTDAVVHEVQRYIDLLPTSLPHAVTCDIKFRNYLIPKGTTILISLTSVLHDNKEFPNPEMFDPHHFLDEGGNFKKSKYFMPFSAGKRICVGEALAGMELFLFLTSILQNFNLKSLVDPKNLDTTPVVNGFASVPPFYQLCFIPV

[23] = Volume of distribution at steady state in Beagle dog at 3 mg/kg, iv by UPLC analysis; type: ADME, organism-based, Canis lupus familiaris; details: in vivo, read-out: Vdss
[24] = Protein binding in human plasma at 10 uM after 4 hrs by LC-MS/MS analysis; type: ADME, cell-free; details: read-out: PPB (converted)
[25] = AUCt in Sprague-Dawley rat at 10 mg/kg, po via gavage by UPLC analysis; type: ADME, organism-based; details: in vivo
[26] = Intrinsic clearance in rat liver microsomes at 1 uM measured up to 30 mins by LC-MS/MS analysis; type: ADME, microsome; details: read-out: CLH
Mus musculus [27] = assay: In vivo inhibition of HIF-2alpha in SCID/Biege mouse xenografted with human 786-O cells assessed as reduction in VEGFA mRNA levels at 10 mg/kg, po bid for 3 days and measured after 12 hrs post last dose by qRT-PCR analysis; type: functional, organism-based
Cytochrome P450 3A4 = Cytochrome P450 3A4 (Homo sapiens, UniProt P08684); assay: Inhibition of CYP3A4 in human liver microsomes using midazolam as substrate after 10 mins in presence of NADPH by LC-MS/MS analysis; type: ADME
Chain of Cytochrome P450 3A4 (P08684 whole entry): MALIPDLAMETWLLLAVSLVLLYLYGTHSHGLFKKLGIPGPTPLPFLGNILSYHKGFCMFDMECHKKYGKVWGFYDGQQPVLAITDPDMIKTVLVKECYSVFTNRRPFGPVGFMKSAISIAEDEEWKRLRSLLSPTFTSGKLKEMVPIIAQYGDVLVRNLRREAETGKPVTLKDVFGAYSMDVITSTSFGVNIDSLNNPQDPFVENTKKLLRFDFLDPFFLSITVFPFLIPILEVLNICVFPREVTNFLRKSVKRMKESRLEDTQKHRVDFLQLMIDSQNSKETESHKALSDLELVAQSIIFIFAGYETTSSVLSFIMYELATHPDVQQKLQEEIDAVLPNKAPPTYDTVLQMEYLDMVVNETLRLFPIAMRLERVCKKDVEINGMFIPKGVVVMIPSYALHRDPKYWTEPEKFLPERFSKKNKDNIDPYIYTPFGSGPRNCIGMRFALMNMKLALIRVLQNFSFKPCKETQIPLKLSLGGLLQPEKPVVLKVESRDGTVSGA

Mus musculus [28] = assay: Toxicity in SCID/Biege mouse xenografted with human 786-O cells assessed as effect on body weight at 10 mg/kg, po bid for 21 days; type: organism-based; details: in vivo, 504 h
Canis familiaris [29] = assay: Oral bioavailability in Beagle dog at 10 mg/kg administered via gavage by UPLC analysis; type: ADME, organism-based, Canis lupus familiaris; details: in vivo

Structure (SMILES)	pIC50 (Cytochrome P450 1A2)	inhibition (Mus musculus [1])	CLint scaled at 1 µM [2] [mL/min/kg]	Vd [3] [L/kg]	CLint scaled at 1 µM [4] [mL/min/kg]	Activity (Mus musculus [5])	clearance [6] [mL/min/kg]	fraction unbound at 4 h, 10 µM [7]	fraction unbound at 4 h, 10 µM [8]	AUC(0-t) [9] [µM·h]	Vd [10] [L/kg]	inhibition at 0.05 h, 10 µM (hERG (KCNH2)) [%]	half-life [11] [h]	inhibition (786-0 [12])	AUCt (Canis familiaris [13]) [µM·h]	Drug uptake (Mus musculus [14])	half-life [15] [h]	clearance [16] [mL/min/kg]	pIC50 (Cytochrome P450 2D6)	concentration at 12 h [17] [nM]	further results
N#Cc1cc(F)cc(Oc2ccc3c(c2C(F)F)[C@@H](O)C(F)(F)S3(=O)=O)c1	< 4.30	Active	< 3	3.5	5.9	Non-Toxic	27.2	0.18	0.11	6.1	9.5	17	6.5	Active	12.6	Active	6.7	70.6	< 4.30	220	bioavailability [18]: 110%; fraction unbound at 4 h, 10 µM [19]: 0.15; bioavailability [20]: 36%; CLint scaled at 1 µM [21]: < 5 mL/min/kg; Activity (786-0 [22]): Active; pIC50 (Cytochrome P450 2C9): 4.80; Vd [23]: 3.1 L/kg; fraction unbound at 4 h, 10 µM [24]: 0.37; AUC(0-t) [25]: 5.49 µM·h; CLint scaled at 1 µM [26]: 9.1 mL/min/kg; inhibition (Mus musculus [27]): Active; pIC50 (Cytochrome P450 3A4): 4.88; Activity (Mus musculus [28]): Non-Toxic; F (Canis familiaris [29]): 72%
CS(=O)(=O)c1ccc(Oc2cc(F)cc(C#N)c2)c2c1[C@H](O)C(F)(F)C2	< 4.30	Active	4.7	6.24	19.9	Non-Toxic	34.6	0.25	0.26	16.4	7	8.2	3.3	Active	6.2	Active	11	29.2	< 4.30	460	bioavailability [18]: 110%; fraction unbound at 4 h, 10 µM [19]: 0.29; bioavailability [20]: 40%; CLint scaled at 1 µM [21]: < 5 mL/min/kg; Activity (786-0 [22]): Active; pIC50 (Cytochrome P450 2C9): 4.64; Vd [23]: 8.6 L/kg; fraction unbound at 4 h, 10 µM [24]: 0.21; AUC(0-t) [25]: 5.12 µM·h; CLint scaled at 1 µM [26]: 22.6 mL/min/kg; inhibition (Mus musculus [27]): Active; pIC50 (Cytochrome P450 3A4): < 4.30; Activity (Mus musculus [28]): Non-Toxic; F (Canis familiaris [29]): 87%
